The record followed here is patent publication US9776983B2, “Method for manufacturing fluoropolymers” (SOLVAY SOLEXIS S.p.A., priority 2008, dated 2017).

The nature of data set [1]: pKa of acid (D). It is filed as physicochemical. To be noted: free acid (D). How it is done: An aqueous solution composed of KMnO4 (238 mmol, 37.6 g), NaOH (238 mmol, 9.52 g) in 200 ml of distilled H2O was introduced in a 3-necked glass round-bottomed flask equipped with a magnetic stirrer, a dropping funnel, a thermometer and a tap water refrigerating column. The flask was heated to 80° C. with vigorous stirring and then 238 mmol; 50 g of product obtained from step 1a was slowly dropped into the basic oxidizing solution. Immediate exothermic release (+15° C.) was observed together with formation of MnO2 precipitate. After completion of the addition, solution was further stirred at 80° C. for 40 min. Crude reaction mixture was then cooled to room temperature, filtered, acidified to pH=1 with concentrated HCl (37% w/w) and extracted several times with CH2Cl2. The organic layer was dried over MgSO4, filtered and then the CH2Cl2 is evaporated.

A short description of data set [2]: Thermogravimetric analysis (TGA) in air. It is filed as physicochemical. To be noted: ammonium salt. How it is done: (§1) An organic solution composed of (D) (127 mmol; 30.6 g) and 200 ml of CH2Cl2 was introduced in a 2-necked glass round-bottomed flask equipped with a magnetic stirrer, a tap water refrigerating column and a bubbling tube. The mixture was cooled to 0° C. with vigorous stirring and a large excess of gaseous NH3 was bubbled through the organic mixture. Bubbling of NH3 (g) was pursued until completion of the precipitation of the ammonium salt. Crude mixture was filtered; solid was dried in a vacuum oven at 40° C. under reduced pressure (20 mmHg) for 2 hours. A flaky white solid is obtained. Isolated yield of compound (E) (VIIa, with Xa being NH4)=100%. […] FIG. 2 depicts the ^19F-NMR spectrum of compound (E).
Perfluorinated ester (G) was hydrolyzed in water at 0° C., yielding corresponding acid with quantitative yield. Evolved HF was neutralized with 1.5 mol eq. of KF, yielding solid KHF2, which was separated by filtration. After removal of solvent, the free acid (b.p.=160° C.) and CF3COOH (b.p.=72° C.) were separated by fractional distillation. Gaseous NH3 was then bubbled in a CH2Cl2 (200 ml) solution of the acid; ammonium salt (H) (formula Va, with Xa═NH4) was then recovered with a yield of 75% moles (with respect to alcohol intermediate (B)). […] FIG. 3 depicts the ^19F-NMR spectrum recorded on compound (H).
Acid (XIII, Xa═H) was solubilised in CH2Cl2 (200 ml); gaseous NH3 was then bubbled in said solution; ammonium salt (XIII, Xa═NH4) was then recovered with a yield of 75% moles (with respect to alcohol intermediate (L)). […] FIG. 7 depicts the ^19F-NMR spectrum recorded on ammonium salt (XIII, Xa═NH4).

Data set [3] in a line: Urine levels and urinary recovery after single oral administration. It is filed as in vivo, male Wistar rats. The method, then: (§2) Compound Va and VIIa (Xa═NH4) were administered by single oral route (gavage) three male Wistar (SPF-bred) rats at dose levels of about 70 μmol/kg of dry ammonium salt, corresponding to the 21.2 mg/kg for compound Va and 19.9 mg/kg for compound VIIa. Blood sampling occurred 15 minutes before administration, at 4, 8, 12, 24, 72 and 168 hours after administration.
(§3) Compound XIII was dosed by single oral administration to 3 male Wistar rats at the dose of 73 umol/kg corresponding to 26.06 mg/kg. Blood sampling occurred at 15 minutes before administration, at 4, 8, 12, 24, 72 and 168 hours after administration. Urine samples were obtained at time intervals 0-12, 12-24, 24-72, 72-96, 96-168 hours after dosing. Plasma and urine concentration of XIII were determined by a validated analytical method.

Data set [4] is described as follows: Oral acute toxicity. The data set is classed as in vivo. The method, then:
as §1

Data set [5] can be described thus: Plasma levels and pharmacokinetic parameters after single oral (gavage) administration. It is filed as in vivo, male Wistar (SPF-bred) rats. To be noted: for elimination from blood compared with APFO: after single oral administration, C/Cmax versus time (FIG. 5); for time of maximal plasma concentration (tmax): single oral, Va, VIIa about 70 μmol/kg, XIII 73 umol/kg. How it is done: as §2, §3
Results of plasma concentrations for compound VIIa (Xa═NH4), Va (Xa═NH4), XIII (Xa═NH4) and APFO as a function of time are sketched in FIG. 5. This graph depicts ratio C/Cmax for compound Va (Xa═NH4) (●) compound VIIa (Xa═NH4) (◯), for compound XIII (Xa═NH4) (□) and APFO (▴), with C=instantaneous plasma concentration and Cmax=maximum plasma concentration, as a function of time (in hours).

The mark [6] stands for this setting: plasma, male rats, single oral gavage, about 70 μmol/kg, individual values of the three animals, listed as VIIa (Xa = NH4).

Values joined by “and” are separate entries in the source; they are usually repeats but may differ in a detail not shown here. Identical values can stand only once.

Turning to `O=C(O)C1(F)OC(F)(F)OC1OC(F)(F)F` (stereo not shown) [(D)], the pKa in data set [1] amounted to 2.8.
As for `N.O=C(O)C1(F)OC(F)(F)OC1OC(F)(F)F` (stereo not shown) [Compound VIIa], in data set [2], the “TGA temperature at weight decrease of 10%” value came to 148 °C and the “TGA temperature at weight decrease of 50%” value came out at 182 °C. Further, in data set [3] (rats, single oral administration), the “urinary recovery at 168 hours after treatment” value is on record as 97-107%. Also, in data set [3] (rats, single oral administration, individual values), the urinary half lives was 9 h and 13 h and 10 h. Moreover, the LD50 entry in data set [4] is “exceed 2000 mg/kg”. The “elimination from blood compared with APFO” value in data set [5] is on record as “significantly faster elimination”. For the same compound, the tmax in data set [5] (plasma, male rats, single oral gavage, about 70 μmol/kg, individual values of the three animals) is listed as 4, 4, 4 h. In data set [5] (setting [6]), the AUC0-t was 135.608 µg·h/mL and 47.07 µg·h/mL and 114.562 µg·h/mL; the AUCinf. was 47.137 µg·h/mL and 115.916 µg·h/mL and 137.788 µg·h/mL; the Cmax is 11258 ng/mL and 14767 ng/mL and 18878 ng/mL; the “t1/2, z” value is 4.8 h and 8.0 h and 8.9 h. Besides, the “reliable plasma half life” value in data set [5] (single oral gavage, about 70 μmol/kg, male Wistar rats) lay in the range of 8.0 to 8.9 h. Further, the “time of maximal plasma concentration (tmax)” value in data set [5] (male Wistar rats) is reported as 4 h.
Take `N.O=C(O)C(F)(F)OC1(F)OC(F)(F)OC1(F)OC(F)(F)F` (stereo not shown) [Compound XIII]: in data set [2], the “TGA temperature at weight decrease of 10%” value was determined as 159 °C and the “TGA temperature at weight decrease of 50%” value is 191 °C. Also, the “mean urinary recovery in 168 hours after treatment” value in data set [3] (3 male Wistar rats, single oral, 73 umol/kg (26.06 mg/kg)) is on record as “around 82%”. For the same compound, the “elimination from blood compared with APFO” value in data set [5] is reported as “significantly faster elimination”. Moreover, the “time of maximal plasma concentration (tmax)” value in data set [5] (male Wistar rats) was 4 h.

The term pKa denotes the pH at which an ionisable group is half protonated. For orientation: Cmax means the highest concentration seen after dosing.
